The text below walks through data of PubChem BioAssay AID651630 (Sanford-Burnham Center for Chemical Genomics, 2012).

Active and inactive are the calls of the source.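 Rule for the calls: active = lipid-stain IC50 at or below a set limit, with nuclear-stain toxicity IC50 at least five times higher; inactive = the rest.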

Test [1] deals with TAG. In words: triacylglycerol accumulation inhibitor potency, dose response, cell-based, panel, Nile Red and DAPI fluorescence, H9c2 (AID 651630).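 Note: cells exposed to compound overnight before fixation and staining.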 To be noted: H9c2 cells, Nile Red TAG fluorescence, oleic acid.
Test [2] deals with DAPI. The description is as above. Conditions: H9c2 cells, DAPI nuclear fluorescence (cytotoxicity counter-readout), oleic acid.

The IC50 is the concentration that inhibits the measured activity by half. Consider `CNC(=O)c1ccc(-c2sc3nc(N4CCOCC4)c4c(c3c2N)CCCC4)o1`, for which the IC50 is 6.57 µM in test [1] (mean of runs), 5.49 µM in test [1] (run 1) and 7.64 µM in test [1] (run 2). In addition, the IC50 cytotoxicity (DAPI nuclear signal decrease) is > 25 µM (inactive) in test [2] (mean of runs), more than 25 µM in test [2] (run 1) and more than 25 µM in test [2] (run 2).
With `CC(C)(C)N1C(=O)[C@H]2[C@@H](c3ccc(Br)cc3)N3C(=O)N(c4ccc(Br)cc4)C(=O)[C@@]3(Cc3ccccc3)[C@H]2C1=O`, the IC50 in test [1] (mean of runs) is 17.2 µM (inactive); in test [1] (run 1), 18.3 µM; in test [1] (run 2) it was 16 µM. The IC50 cytotoxicity (DAPI nuclear signal decrease) was > 25 µM (inactive) in test [2] (mean of runs), more than 25 µM in test [2] (run 1) and more than 25 µM in test [2] (run 2).
In the case of `CCC1=Nc2cc(C(=O)NCCCOC)ccc2Sc2ccccc21`, the IC50 was > 25 µM (inactive) in test [1] (mean of runs), more than 25 µM in test [1] (run 1) and more than 25 µM in test [1] (run 2). Further, the values for the IC50 cytotoxicity (DAPI nuclear signal decrease) in test [2] (mean of runs), in test [2] (run 1) and in test [2] (run 2) were > 25 µM (inactive), more than 25 µM and more than 25 µM, respectively.
On to `COc1cccc(/C=C/C(=C2\C(=O)N(c3ccccc3)N=C2C)c2ccc(Br)cc2)c1OC`, for which the concentration for half-maximal inhibition (IC50) in test [1] (mean of runs) was 5.18 µM; in test [1] (run 1), 5.94 µM; in test [1] (run 2), 4.43 µM. For the same compound, the results for the IC50 cytotoxicity (DAPI nuclear signal decrease) in test [2] (mean of runs), in test [2] (run 1) and in test [2] (run 2) were > 25 µM (inactive), more than 25 µM and more than 25 µM, respectively.
With `Cc1ccc(Cc2nnc(SCC(=O)Nc3ccccc3)n(N)c2=O)cc1`, the IC50 in test [1] (mean of runs) was 9.19 µM; in test [1] (run 1) it was 8.57 µM; in test [1] (run 2), 9.8 µM. Also, the figures for the IC50 cytotoxicity (DAPI nuclear signal decrease) in test [2] (mean of runs), in test [2] (run 1) and in test [2] (run 2) were > 25 µM (inactive), more than 25 µM and more than 25 µM, respectively.
For the compound `CC(C)CC(N)c1csc(NC(=O)Nc2ccccc2Cc2ccccc2)n1` (stereo not drawn), the IC50 in test [1] (mean of runs) was > 25 µM (inactive); in test [1] (run 1), more than 25 µM; in test [1] (run 2), more than 25 µM. Also, the IC50 cytotoxicity (DAPI nuclear signal decrease) in test [2] (run 1) is 20.4 µM; in test [2] (run 2) it was more than 25 µM.
For the compound `O=C(c1ccoc1)N1CCN(c2cc(-c3ccccc3)nc3cc(-c4ccc(Br)cc4)nn23)CC1`, the results for the concentration for half-maximal inhibition (IC50) in test [1] (mean of runs), in test [1] (run 1) and in test [1] (run 2) were 12.1 µM, 12.8 µM and 11.3 µM, respectively. The IC50 cytotoxicity (DAPI nuclear signal decrease) was > 25 µM (inactive) in test [2] (mean of runs), more than 25 µM in test [2] (run 1) and more than 25 µM in test [2] (run 2).
As to `CCOCCC(=O)Nc1ccc2c(c1)c(=O)n(C)n2C/C=C/c1ccccc1`, the IC50 in test [1] (mean of runs) is > 25 µM (inactive); in test [1] (run 1), more than 25 µM; in test [1] (run 2), more than 25 µM. The IC50 cytotoxicity (DAPI nuclear signal decrease) in test [2] (mean of runs) was > 25 µM (inactive); in test [2] (run 1) it was more than 25 µM; in test [2] (run 2), more than 25 µM.
In the case of `CCOc1ccccc1NC(=O)CCC(=O)Nc1ccccc1OCC`, the results for the IC50 in test [1] (mean of runs), in test [1] (run 1) and in test [1] (run 2) were > 25 µM (inactive), more than 25 µM and more than 25 µM, respectively. Moreover, the results for the IC50 cytotoxicity (DAPI nuclear signal decrease) in test [2] (mean of runs), in test [2] (run 1) and in test [2] (run 2) were > 25 µM (inactive), more than 25 µM and more than 25 µM, respectively.
`CC(=O)O[C@H]1C[C@@]2(C)[C@@H](C[C@@H](O)[C@H]3[C@@]4(C)CC[C@@H](O)[C@@H](C)[C@@H]4CC[C@@]32C)/C1=C(\CCC=C(C)C)C(=O)O`: the IC50 in test [1] (mean of runs) is 18.5 µM (inactive); in test [1] (run 1), 15 µM; in test [1] (run 2), 22 µM. Besides, the IC50 cytotoxicity (DAPI nuclear signal decrease) in test [2] (mean of runs) is > 25 µM (inactive); in test [2] (run 1) it was more than 25 µM; in test [2] (run 2), more than 25 µM.
On to `Cc1ccc(NC(=O)Cn2nnc(-c3ccccc3NC(=O)c3cccs3)n2)cc1`, for which the IC50 is 5.75 µM in test [1] (mean of runs), 7.48 µM in test [1] (run 1) and 4.02 µM in test [1] (run 2). Besides, the results for the IC50 cytotoxicity (DAPI nuclear signal decrease) in test [2] (mean of runs), in test [2] (run 1) and in test [2] (run 2) were > 25 µM (inactive), more than 25 µM and more than 25 µM, respectively.
As to `CC(C)(C)NC(=O)C(c1ccc(-c2ccccc2)cc1)N(C[C@H]1CC[C@@H]([C@@H]2CC[C@H](CO)O2)O1)C(=O)c1ccc(-c2ccccc2)cc1` (stereo partly drawn), the IC50 in test [1] (mean of runs) is 13.8 µM; in test [1] (run 1), 12.3 µM; in test [1] (run 2), 15.3 µM. The IC50 cytotoxicity (DAPI nuclear signal decrease) in test [2] (mean of runs) is > 25 µM (inactive); in test [2] (run 1) it was more than 25 µM; in test [2] (run 2), more than 25 µM.
Turning to `COc1cc(C#Cc2c(-c3cncn3C)n(C)c3ccc(-c4cnc(N5CCOCC5)nc4)cc23)cc(OC)c1`, the half-maximal inhibitory concentration (IC50) in test [1] (mean of runs) was 11 µM; in test [1] (run 1) it was 14.3 µM; in test [1] (run 2) it was 7.65 µM. For the same compound, the IC50 cytotoxicity (DAPI nuclear signal decrease) is > 25 µM (inactive) in test [2] (mean of runs), more than 25 µM in test [2] (run 1) and more than 25 µM in test [2] (run 2).
Take `COC(=O)c1cc(C(=O)N2CCN(c3ccccc3OC)CC2)cc([N+](=O)[O-])c1`: the IC50 is 13.2 µM in test [1] (mean of runs), 11.8 µM in test [1] (run 1) and 14.5 µM in test [1] (run 2). Further, the IC50 cytotoxicity (DAPI nuclear signal decrease) was > 25 µM (inactive) in test [2] (mean of runs), more than 25 µM in test [2] (run 1) and more than 25 µM in test [2] (run 2).
Take `C[C@H](CO)N1C[C@H](C)[C@@H](CN(C)Cc2ccc(-c3ccccc3)cc2)Oc2c(NC(=O)Cc3ccccc3)cccc2C1=O`: the IC50 in test [1] (mean of runs) was 11.3 µM; in test [1] (run 1), 12.4 µM; in test [1] (run 2), 10.2 µM. Besides, the figures for the IC50 cytotoxicity (DAPI nuclear signal decrease) in test [2] (mean of runs), in test [2] (run 1) and in test [2] (run 2) were > 25 µM (inactive), more than 25 µM and more than 25 µM, respectively.
With `O=C(c1cnn2c1NC(c1ccc(Br)cc1)CC2C(F)(F)F)N1CCN(C23CC4CC(CC(C4)C2)C3)CC1` (stereo not drawn), the IC50 in test [1] (mean of runs) is > 25 µM (inactive); in test [1] (run 1) it was more than 25 µM; in test [1] (run 2), more than 25 µM. Besides, the IC50 cytotoxicity (DAPI nuclear signal decrease) in test [2] (mean of runs) was > 25 µM (inactive); in test [2] (run 1) it was more than 25 µM; in test [2] (run 2), more than 25 µM.
For `Cc1cc(NC(=O)CSc2nc(-c3cccs3)nc3ccccc23)no1`, the figures for the IC50 in test [1] (mean of runs), in test [1] (run 1) and in test [1] (run 2) were 17.5 µM (inactive), 14.4 µM and 20.6 µM, respectively. The IC50 cytotoxicity (DAPI nuclear signal decrease) is > 25 µM (inactive) in test [2] (mean of runs), more than 25 µM in test [2] (run 1) and more than 25 µM in test [2] (run 2).
`CN1CSC(=S)N(C)C1`: the IC50 was > 25 µM (inactive) in test [1] (mean of runs), more than 25 µM in test [1] (run 1) and more than 25 µM in test [1] (run 2). Also, the IC50 cytotoxicity (DAPI nuclear signal decrease) in test [2] (mean of runs) was > 25 µM (inactive); in test [2] (run 1), more than 25 µM; in test [2] (run 2), more than 25 µM.
For the compound `CN1CCN(c2ccc([N+](=O)[O-])cc2C(=O)c2ccc(Cl)cc2)CC1`, the figures for the IC50 in test [1] (mean of runs), in test [1] (run 1) and in test [1] (run 2) were > 25 µM (inactive), more than 25 µM and more than 25 µM, respectively. The values for the IC50 cytotoxicity (DAPI nuclear signal decrease) in test [2] (mean of runs), in test [2] (run 1) and in test [2] (run 2) were > 25 µM (inactive), more than 25 µM and more than 25 µM, respectively.
Take `CN1N=C(N)c2cn(C3OC(COP(=O)(O)O)C(O)C3O)c3ncnc1c23` (stereo not drawn): the half-maximal inhibitory concentration (IC50) in test [1] (mean of runs) is 12.2 µM; in test [1] (run 1), 11.1 µM; in test [1] (run 2) it was 13.4 µM. Further, the values for the IC50 cytotoxicity (DAPI nuclear signal decrease) in test [2] (mean of runs), in test [2] (run 1) and in test [2] (run 2) were 7.78 µM (inactive), 6.76 µM and 8.79 µM, respectively.
Regarding `CN(C)c1ccc(NC(=O)CSc2nc3ccccc3c(=O)n2C2CCCCC2)cc1`, the concentration for half-maximal inhibition (IC50) is more than 25 µM in test [1] (run 1) and 20 µM in test [1] (run 2). Besides, the IC50 cytotoxicity (DAPI nuclear signal decrease) is > 25 µM (inactive) in test [2] (mean of runs), more than 25 µM in test [2] (run 1) and more than 25 µM in test [2] (run 2).
Consider `CCN1CCN(Cc2ccc(NC(=O)c3cc(NC(=O)c4cc5cccc(OC)c5o4)cc(OC)c3)cc2C(F)(F)F)CC1`, for which the concentration for half-maximal inhibition (IC50) in test [1] (mean of runs) was 13.9 µM; in test [1] (run 1), 12.7 µM; in test [1] (run 2), 15.1 µM. For the same compound, the figures for the IC50 cytotoxicity (DAPI nuclear signal decrease) in test [2] (mean of runs), in test [2] (run 1) and in test [2] (run 2) were > 25 µM (inactive), more than 25 µM and more than 25 µM, respectively.
On to `C=CC[C@@H](CC(=O)N(CCO)Cc1ccccc1)C(=O)N[C@H](COC(=O)[C@@H](CC=C)Cc1ccc(F)cc1)Cc1c[nH]c2ccccc12`, for which the IC50 in test [1] (mean of runs) was 8.92 µM; in test [1] (run 1), 7.83 µM; in test [1] (run 2), 10 µM. Also, the results for the IC50 cytotoxicity (DAPI nuclear signal decrease) in test [2] (mean of runs), in test [2] (run 1) and in test [2] (run 2) were > 25 µM (inactive), more than 25 µM and more than 25 µM, respectively.
With `CCc1ccc(/C=N/NC(=O)c2cc(C3CC3)nc3ccc(Br)cc23)s1`, the IC50 in test [1] (mean of runs) was > 25 µM (inactive); in test [1] (run 1), more than 25 µM; in test [1] (run 2) it was more than 25 µM. Besides, the IC50 cytotoxicity (DAPI nuclear signal decrease) is > 25 µM (inactive) in test [2] (mean of runs), more than 25 µM in test [2] (run 1) and more than 25 µM in test [2] (run 2).
Turning to `O=[N+]([O-])c1ccc(Nc2nc(N3CCOCC3)nc(N3CCOCC3)n2)cc1`, the IC50 in test [1] (mean of runs) was 21.4 µM (inactive); in test [1] (run 1), 24.2 µM; in test [1] (run 2), 18.6 µM. In addition, the IC50 cytotoxicity (DAPI nuclear signal decrease) was > 25 µM (inactive) in test [2] (mean of runs), more than 25 µM in test [2] (run 1) and more than 25 µM in test [2] (run 2).
